Where a name gives a salt, the structure may show the parent alone.
Experiments:
[1] = Single dose oral plasma pharmacokinetics; type: in vivo, male C57BL/6 mice; settings: free astaxanthin, single 500 mg/kg oral dose
Protocol: Single dose oral pharmacokinetic parameters (including Cmax, Tmax, AUC(0-72) Vd, and clearance) of the disodium disuccinate astaxanthin derivative XVI were determined in male C57BL/6 mice. The animals were administered the derivative orally at a single maximum dose (500 mg/kg) shown in prior studies to likely be efficacious in preventing the injury secondary to CCl4-administration in Sprague-Dawley rats (100 mg/kg body weight in those studies). Samples for HPLC analysis of levels of free astaxanthin in plasma and liver were obtained at the following time points, from at least 3 animals per time point: Time 0 [Immediately Before Dosing of Test Compound], 2, 4, 6, 8, 12, 16, 24, 48, and 72 Hours After Ingestion. Additional samples, with N<3, were taken at other intervals (10, 14, and 36 hours; Tables 2 and 3). Non-esterified, free astaxanthin levels were determined in this study as carotenoid esters are completely cleaved in the mammalian gut to free carotenoid, which moves passively across the enterocyte. 5 Male C57BL/6 mice, approximately 25 g, were housed in cages (three mice/cage) and fed standard mouse chow (Purina Mouse Chow, Ralston Purina, St. Louis) and water ad libitum for at least five days prior to the start of the experiment. […]

[2] = Determination of water solubility; type: physicochemical
Protocol: A total of 30 mg of sample (disodium disuccinate astaxanthin derivative, as the all-trans mixture of stereoisomers 3S,3′S, meso, and 3R,3′R in a 1:2:1 ratio) was added to 2 mL of sterile-filtered ([…] Millipore®) deionized (DI) water in a 15 mL glass centrifuge tube. The tube was wrapped in aluminum foil and the mixture was shaken for 2 hours, then centrifuged at 3500 rpm for 10 minutes. The aqueous solution was filtered through a 0.45 micron PVDF disposable filter device. A 1 mL volume of filtrate was then diluted appropriately with DI water, and the concentration of the solution was measured at 480 nm using a four point calibration curve prepared from fresh sample.

C-reactive protein (CRP) = experiment: Circulating C-reactive protein levels (ELISA) in croton oil-stimulated infarct model; type: in vivo, rabbit; settings: 50 mg/kg IV for 4 days; 1% croton oil; sample at time of reperfusion; controls +23.5%
Description: The influence of parenteral administration of the disodium disuccinate astaxanthin derivative (XVI) on induced infarct size and induced levels of circulating C-reactive protein (CRP) in rabbits was investigated using the methods of Barrett et al. (2002) with slight modifications. The purpose of the current study was to investigate the ability of the disodium disuccinate astaxanthin derivative (XVI) to reduce inflammation as measured by CRP in the setting of experimental myocardial ischemia-reperfusion injury in the rabbit heart. […] Therefore, reduction of circulating CRP levels, together with the reduction(s) in infarct size previously noted with Cardax™ in rodents, would form a powerful anti-inflammatory therapeutic modality in the acute coronary syndrome setting.
In brief, male New Zealand white rabbits (2.25-2.5 kg) were used for the study. The acute phase inflammatory response was induced by subcutaneous injection of four aliquots (0.5 mL each) of 1% croton oil in corn oil beginning on the second day of pre-treatment with Cardax™. Either Cardax™ (at 50 mg/kg IV by ear vein injection) in water or equal volumes of sterile saline were given once per day for 4 days prior to experimental infarction on day 5. The time course of increases in circulating CRP levels were obtained as described previously (Barret et al. 2002), using an ELISA-based method with anti-rabbit CRP antibodies. […]

Cx43 protein = Cx43 protein expression by stereoisomer forms (immuno-(Western) blotting, 4 days); type: cell-based, mouse; settings: 1×10^-5 M in 1:2 ethanol/H2O
Protocol: (2) Molecular Studies. […] Briefly, mouse embryonic fibroblast C3H10T1/2 cells were cultured in Eagle's basal medium with Earle's salts (Atlanta Biologicals, Atlanta, Ga.), supplemented with 5% fetal calf serum (Atlanta Biologicals, Atlanta, Ga.) and 25 μg/mL gentamicin sulfate (Sigma, St. Louis, Mo.), and incubated at 37° C. in 5% CO2. On the 7th day after seeding in 100 millimeter (mm) dishes, the confluent cells were treated for four days with the disodium salt disuccinate astaxanthin derivatives XVI and then harvested and analyzed for Cx43 protein induction as described. Protein content was measured using the Protein Assay Reagent kit (Pierce Chemical Co., Rockford, Ill.) according to manufacturer's instructions. Cell lysates containing 100 μg of protein were analyzed by Western blotting using the NuPage western blotting kit and apparatus (Invitrogen, Carlsbad, Calif.) and Cx43 protein detected using a rabbit polyclonal antibody (Zymed, San Francisco, Calif.) raised against a synthetic polypeptide corresponding to the C-terminal domain of mouse, human and rat Cx43. Cx43 immunoreactive bands were visualized by chemiluminescence using an anti-rabbit HRP-conjugated secondary antibody (Pierce Chemical Co., Rockford, Ill.). Digital images were obtained with a cooled CCD camera, and quantitative densitometry was then performed (Bio-Rad, Richmond, Calif.).

- Oral clearance [1]: 216.822 L/h
- solubility at 2 h ([2]; deionized water, water, thermodynamic from solid, pure aqueous formulation): 8.64 mg/mL
- increase in solubility in the dosing vehicle ([2]; emulsion vs pure aqueous formulation): 6 fold
- solubility ([2]; olive oil/water/soybean lecithin emulsion, aqueous with cosolvent or surfactant or cyclodextrin, olive oil/water/soybean lecithin emulsion for oral gavage): ~50 mg/mL
- water solubility ([2]; pure aqueous formulation): approximately 8.64 mg/mL
SMILES: CC1=C(/C=C/C(C)=C/C=C/C(C)=C/C=C/C=C(C)/C=C/C=C(C)/C=C/C2=C(C)C(=O)C(OC(=O)CCC(=O)O)CC2(C)C)C(C)(C)CC(OC(=O)CCC(=O)O)C1=O (racemic) [XVI, Disodium Salt of the Disuccinic Acid Ester of Astaxanthin]
- mean change in circulating CRP levels from baseline (C-reactive protein (CRP)): −15.7%
- rank of Cx43 induction level among derivatives (Cx43 protein): highest induction level of Cx43 of all derivatives tested
- expression of Cx43 protein (Cx43 protein; four days, vs 1:2 ethanol/H2O alone): increase expression of Cx43 protein
